The subject of experiment [1] is NPCs. Description: NPC proliferation (live cell count, EdU) after Wnt signaling manipulation. It counts as cell-based, human. As for the experimental part:
Proliferation and apoptosis assays.
(§1) Wnt signaling manipulation. For manipulating the Wnt/β-catenin signaling pathway in NPCs, 200,000 cells were seeded on a 6-well plate, followed by treatment with specific agonist CHIR99021 (1 μM) for 4 days. Controls were treated with DMSO (CHIR diluent) at the same concentration and for the same duration. […] In all cases, treated cells were assayed to measure activity of the Wnt pathway via transfection with the TOP-Flash plasmids described herein.

Experiment [2] has as its system NPCs. Description: RT-qPCR gene expression in NPCs after Wnt signaling manipulation. It counts as cell-based, human. The protocol:
Real time quantitative PCR. Total RNA was extracted using RNeasy Mini Plus kit (Qiagen), followed by DNase I treatment on the column, as per the manufacturer's recommendations. Two and a half micrograms of total RNA were reverse transcribed into cDNA using the Superscript III First-Strand Reverse Transcription System (Thermo Fisher Scientific). Real-time quantitative PCR (RT-qPCR) was performed using pre-validated FAM-MGB TaqMan probes (Thermo Fisher Scientific) and the TaqMan universal master mix II without UNG (Thermo Fisher Scientific) on a CFX Connect Real Time PCR detection system (Bio-Rad), with the following cycling parameters: 94° C. for 3 min, followed by 40 cycles of 94° C. for 30 s and 68° C. for 1 min. Amplification and denaturation curves for all probes were analyzed to verify amplification of just one amplicon. All RT-qPCR analyses were conducted using RNA extracted from at least 3 independent biological samples per subject/condition, and normalized to the following endogenous control genes (TBP, ACTB, and GAPDH). Relative expression was calculated using the traditional ΔΔCt method.
as §1
(In general: In qPCR the cycle at which signal appears reflects the starting amount.)

[3] abbreviates: PTHS NPCs in 2D culture, CHIR (FIG. 16K).

Each structure is given as a SMILES string.

For `Cc1c[nH]c(-c2cnc(NCCNc3ccc(C#N)cn3)nc2-c2ccc(Cl)cc2Cl)n1` [CHIR99021], the proliferation rates result in the experiment on NPCs [1] (PTHS NPCs, CHIR99021 1 μM, 4 days (FIGS. 9G-H)) is on record as “rescued the proliferation rates”. Moreover, in the experiment with NPCs [1] (parent NPCs in 2D culture, CHIR (FIGS. 9G-H)), the proliferation result is recorded as “does not lead to increased proliferation”. In the experiment on NPCs [2] (NPCs, CHIR99021 (FIG. 16N)), the PCDH15 expression entry is recorded as “further reduces its expression”. For the same molecule, in the experiment on NPCs [2] (setting [3]), the “expression of TCF4” value is listed as “increased” and the “expression of TCF4 downstream targets (GADD45G)” value was “increased”. For the same molecule, in the experiment on NPCs [2] (PTHS NPCs, CHIR99021 (FIG. 9J)), the “expression of pro-proliferative gene HES1” value is on record as “increased the expression”, the “expression of proneural gene ASCL1” value was “increased the expression” and the “expression of proneural gene NEUROD1” value is recorded as “increased the expression”. Also, the SOX3 expression result with NPCs [2] (PTHS progenitors, CHIR99021 (FIG. 10F)) was “increased SOX3 expression”.

The values above are taken from patent US20230372542A1, “COMPOSITION AND METHODS FOR MODULATING TCF4 GENE EXPESSION AND TREATING PITT HOPKINS SYNDROME” (The Regents of the University of California, priority 2020, published 2023).
